The Deep4Chem optical property database
Where “and” joins values, the source holds several entries; their conditions need not be identical. Equal values may be shown once. Values belong to the compound of their own block, whether it stands above or below them.

Assay: solvent given as SMILES

Structure (SMILES): CC1=CC(C)=[N+]2C1=C(c1ccc(N(C)C)cc1)c1c(C)cc(C)n1[B-]2(F)F
absorption maximum (in C1CCOC1): 499 nm
absorption maximum (in CC#N): 496 nm
absorption maximum (in CC(=O)C(C)(C)C): 496 nm
absorption maximum (in CC(C)=O): 496 nm
absorption maximum (in CCCCCC): 500 nm
absorption maximum (in CCOC(C)=O): 498 nm
absorption maximum (in CO): 500 nm and 492 nm

Structure (SMILES): COc1cc(F)c(C(=O)c2cc(F)c(OC)cc2F)cc1F
absorption maximum (in CCO): 301 nm

Structure (SMILES): CC1=[N+]2C(=C(C3=CC4OCCOCCOCCOCCOC4C=C3)c3c4ccccc4c(/C=C/c4ccc(N(C)C)cc4)n3[B-]2(F)F)c2ccccc21 (stereo not drawn)
absorption maximum (in CC#N): 693 nm

Structure (SMILES): CN(C)c1ccc(C#Cc2ccc(C#Cc3ccc(C#Cc4ccccc4C#N)cc3C#N)cc2C#N)cc1
absorption maximum (in C1CCOC1): 422 nm
absorption maximum (in CC#N): 413 nm
absorption maximum (in CN(C)C=O): 426 nm
absorption maximum (in ClC(Cl)Cl): 425 nm
absorption maximum (in c1ccccc1): 426 nm

Structure (SMILES): Cc1cc(-c2nc(-c3ccccc3)nc(-c3ccccc3)n2)ccc1-n1c2ccccc2c2cc3c(cc21)C1c2ccccc2C3c2ccccc21
absorption maximum (in Cc1ccccc1): 364 nm

Structure (SMILES): CCN(CC)c1ccc(-c2ccc(-c3nc(N4CCOCC4)c4ccccc4n3)s2)cc1
absorption maximum (in CC#N): 401 nm
absorption maximum (in Cc1ccccc1): 405 nm

Structure (SMILES): CC1=[N+]2C(=c3c4c5ccccc5cc5cccc(c6cc(C)n(c36)[B-]2(F)F)c54)C=C1
absorption maximum (in C1CCOC1): 584 nm
absorption maximum (in CCCCCC): 583 nm
absorption maximum (in CO): 583 nm
absorption maximum (in CS(C)=O): 587 nm
absorption maximum (in ClC(Cl)Cl): 584 nm
absorption maximum (in ClCCl): 583 nm

Structure (SMILES): CCCCCCOc1cc(/C=C/c2cc(OCCCCCC)c(/C=C/c3cc(OCCCCCC)c(C=C4C(=O)c5ccccc5C4=O)cc3OCCCCCC)cc2OCCCCCC)c(OCCCCCC)cc1C=C1C(=O)c2ccccc2C1=O
absorption maximum (in ClCCl): 550 nm

Structure (SMILES): C(#Cc1ccccc1)C(C#Cc1ccccc1)=c1c2ccccc2c(=C(C#Cc2ccccc2)C#Cc2ccccc2)c2ccccc12
absorption maximum (in ClC(Cl)Cl): 540 nm

Structure (SMILES): CC(C)c1cc(C(C)C)c(B2c3ccccc3Oc3cc(N4c5ccccc5C(C)(C)c5ccccc54)ccc32)c(C(C)C)c1
absorption maximum (in Cc1ccccc1): 436 nm

Structure (SMILES): O=c1oc2ccc3ccc(O)cc3c2nc1-c1ccccc1
absorption maximum (in c1ccccc1): 406 nm

Structure (SMILES): Cc1ccc(-c2c3nc(c(-c4ccc(C)cc4)c4ccc([nH]4)c(-c4ccc(C)cc4)c4nc(c(-c5ccc(C)cc5)c5ccc2[nH]5)C=C4N2CCOCC2)C=C3)cc1
absorption maximum (in CS(C)=O): 653 nm

Structure (SMILES): Cc1ccc(C2=Nc3cccc4[n+]3[B-](F)(O2)OC(c2ccc(C)cc2)=N4)cc1
absorption maximum (in ClCCl): 394 nm

Structure (SMILES): O=c1oc2ccccc2cc1/C=C/c1ccc([N+](=O)[O-])cc1
absorption maximum (in CC#N): 371 nm

Structure (SMILES): O=C1c2ccccc2-c2nc3c4ccccc4c4ccccc4c3n21
absorption maximum (in ClCCl): 441 nm

Structure (SMILES): C/C(=N\Nc1ccc(C#N)cc1)c1ccccn1
absorption maximum (in CC#N): 342 nm
absorption maximum (in CCCCCC): 347 nm
absorption maximum (in CO): 364 nm
absorption maximum (in CS(C)=O): 351 nm
absorption maximum (in ClC(Cl)Cl): 343 nm

Structure (SMILES): CC1=CC(C)=[N+]2C1=C(c1ccccc1)c1c(C)cc(/C=C/c3ccc(O)cc3)n1[B-]2(F)F
absorption maximum (in O): 565 nm

Structure (SMILES): COc1ccc(-c2nc3ccccc3nc2/C=C/N2CCCC2)s1
absorption maximum (in CC#N): 456 nm

Structure (SMILES): CCOC(=O)c1c(-c2cc3ccccc3oc2=O)nn(-c2ccc(Cl)cc2)c1C(=O)OCC
absorption maximum (in ClCCl): 323 nm

Structure (SMILES): COc1ccc(-c2cc(-c3ccc(C)cc3)c(C#N)c(OC)n2)cc1
absorption maximum (in C1CCOC1): 339 nm
absorption maximum (in CC#N): 338 nm
absorption maximum (in CC(C)=O): 340 nm
absorption maximum (in CCCCCC): 334 nm
absorption maximum (in CCOC(C)=O): 335 nm
absorption maximum (in CN(C)C=O): 343 nm
absorption maximum (in CO): 338 nm
absorption maximum (in CS(C)=O): 344 nm
absorption maximum (in ClC(Cl)Cl): 341 nm

Structure (SMILES): CC1(C)OB(c2ccc3ccc4cccc5ccc2c3c45)OC1(C)C
absorption maximum (in Cc1ccccc1): 378 nm

Structure (SMILES): COc1ccc(-c2nc(-c3ccccc3)c(-c3ccccc3)[nH]2)cc1
absorption maximum (in CO): 305 nm

Structure (SMILES): COC1=[N+]2C(=C(c3ccccc3)c3cc(SC#N)c(OC)n3[B-]2(F)F)C=C1SC#N
absorption maximum (in CC#N): 513 nm
absorption maximum (in CCCCCC): 518 nm
absorption maximum (in CCOC(C)=O): 515 nm
absorption maximum (in CO): 512 nm
absorption maximum (in ClCCl): 518 nm

Structure (SMILES): CCc1c(C(=O)OC)c(C(=O)OC)c2ccc(-c3ccccc3)nn12
absorption maximum (in C1CCCCC1): 399.4 nm

Structure (SMILES): Cc1cc(-c2nnc(-c3c(C(C)C)cc(C(C)C)cc3C(C)C)o2)ccc1-n1c2ccccc2c2ccccc21
absorption maximum (in Cc1ccccc1): 339 nm

Structure (SMILES): CCCCCCc1ccsc1-c1cc2c3cc(-c4sccc4CCCCCC)c4nc(C(F)(F)C(F)(F)C(F)(F)F)nc5c(-c6sccc6CCCCCC)cc(c6cc(-c7sccc7CCCCCC)c7nc(C(F)(F)C(F)(F)C(F)(F)F)nc1c7c26)c3c45
absorption maximum (in C1CCOC1): 521 nm

Structure (SMILES): COc1c(/C=N/Nc2ccc(C#N)cc2)ccc2ccccc12
absorption maximum (in CC#N): 380 nm
absorption maximum (in CCCCCC): 387 nm
absorption maximum (in CO): 382 nm
absorption maximum (in CS(C)=O): 392 nm
absorption maximum (in ClC(Cl)Cl): 385 nm

Structure (SMILES): CC1=C(c2ccccc2)C(C)=[N+]2C1=C(c1c(-c3ccccn3)nc3ccccn13)c1c(C)cc(C)n1[B-]2(F)F
absorption maximum (in ClCCl): 532 nm

Structure (SMILES): CCN1c2ccccc2Sc2cc(/C=C(\C#N)c3ccccc3)ccc21
absorption maximum (in C1CCOC1): 411 nm
absorption maximum (in CC#N): 409 nm
absorption maximum (in CC(C)=O): 410 nm
absorption maximum (in CN(C)C=O): 414 nm
absorption maximum (in CS(C)=O): 418 nm
absorption maximum (in Cc1ccccc1): 412 nm
absorption maximum (in ClCCl): 413 nm

Structure (SMILES): O=c1c2ccccc2n2c3ccc(-c4ccccc4)cc3c(=O)c3cccc1c32
absorption maximum (in CC#N): 442 nm
absorption maximum (in CCCCCC): 434 nm
absorption maximum (in CCCCOCCCC): 437 nm
absorption maximum (in CCOC(C)=O): 439 nm
absorption maximum (in CN(C)C=O): 445 nm

Structure (SMILES): COC(=O)c1ccc(/C=C2\C=C(c3ccccc3)OC2=O)cc1
absorption maximum (in C1COCCO1): 401 nm

Structure (SMILES): CCC1=C(CC)C(C)=[N+]2C1=Cc1c(C)c3cc4c(cc3n1[B-]2(F)F)=[N+]1C(=Cc2c(CC)c(CC)c(C)n2[B-]1(F)F)C=4C
absorption maximum (in ClC(Cl)Cl): 692 nm

Structure (SMILES): N#CC(C#N)=C(c1ccc(-n2ccc3ccccc32)cc1)c1ccc(-n2ccc3ccccc32)cc1
absorption maximum (in Cc1ccccc1): 400 nm

Structure (SMILES): COC(=O)c1ccc(-c2nc3ccc(N(C)C)cc3s2)cc1
absorption maximum (in C1CCCCC1): 387 nm
absorption maximum (in CC#N): 392 nm
absorption maximum (in CC(C)O): 393 nm
absorption maximum (in CO): 396 nm
absorption maximum (in CS(C)=O): 405 nm
absorption maximum (in ClC(Cl)Cl): 395 nm
absorption maximum (in c1ccccc1): 394 nm

Structure (SMILES): CC(C)[Si](C#Cc1c2ccc(C(C)(C)C)cc2c(C#Cc2c3ccc(C(C)(C)C)cc3c(C#Cc3c4ccc(C(C)(C)C)cc4c(C#C[Si](C(C)C)(C(C)C)C(C)C)c4ccc(C(C)(C)C)cc34)c3ccc(C(C)(C)C)cc23)c2ccc(C(C)(C)C)cc12)(C(C)C)C(C)C
absorption maximum (in Cc1ccccc1): 570 nm

Structure (SMILES): Cc1cc(C)c(C2=C3C=CC=[N+]3[B-]3(F)Oc4cc(O)cc5c6ccc(C)cc6c6cc2n3c6c45)c(C)c1 (stereo not drawn)
absorption maximum (in ClC(Cl)Cl): 629 nm

Other lines, results leading:

absorption maximum (in CC#N): 524 nm
absorption maximum (in CCO): 527 nm
absorption maximum (in CN(C)C=O): 534 nm
absorption maximum (in CO): 530 nm
absorption maximum (in O): 525 nm
Structure (SMILES): CCNc1cc2oc3c/c(=[NH+]\CC)c(C)cc-3c(-c3ccccc3C(=O)OCC)c2cc1C

absorption maximum (in C1CCCCC1): 374.83 nm
Structure (SMILES): CC(C)c1cc(C(C)C)c(B2c3cc(N4c5ccccc5C(C)(C)c5ccccc54)ccc3N(c3ccccc3)c3ccc(N4c5ccccc5C(C)(C)c5ccccc54)cc32)c(C(C)C)c1

absorption maximum (in ClCCl): 649 nm
Structure (SMILES): Cc1ccc(-c2c3nc(c(-c4ccc(C)cc4)c4ccc([nH]4)c(-c4ccc(OC(=O)C(C)c5cccc(C(=O)c6ccccc6)c5)cc4)c4nc(c(-c5ccc(C)cc5)c5ccc2[nH]5)C=C4)C=C3)cc1 (stereo not drawn)

absorption maximum (in C1CCCCC1): 405 nm
absorption maximum (in CC#N): 406 nm
absorption maximum (in CO): 405 nm
absorption maximum (in ClCCl): 409 nm
Structure (SMILES): COc1c2ccccc2c(OC)c2c1c1ccccc1n2C

absorption maximum (in ClC(Cl)Cl): 343 nm
Structure (SMILES): N#Cc1c(C#N)c2cc(Cl)c(Cl)cc2c2cc(Cl)c(Cl)cc12

absorption maximum (in C1CCOC1): 362 nm
Structure (SMILES): CCC1(CC)c2cc(C#Cc3cccs3)ccc2-c2c1c1c(c3c2C(CC)(CC)c2cc(C#Cc4cccs4)ccc2-3)C(CC)(CC)c2cc(C#Cc3cccs3)ccc2-1

absorption maximum (in CC#N): 400 nm
Structure (SMILES): Cc1cc2c(ccc3c[n+](C)c(C)cc32)c[n+]1C

absorption maximum (in C1COCCO1): 353 nm
Structure (SMILES): c1ccc(-c2nc(-c3ccc(-c4ccc(-c5nc(-c6ccccc6)c(-c6ccccc6)o5)cc4)cc3)oc2-c2ccccc2)cc1

absorption maximum (in ClCCl): 396 nm
Structure (SMILES): Clc1cc(Cl)c(B2c3ccccc3Nc3ccccc32)c(Cl)c1

absorption maximum (in ClCCl): 331 nm
Structure (SMILES): CCOC(=O)c1c(-c2c(Cl)c3cc(C)ccc3oc2=O)nn(-c2cccc(C)c2)c1C(=O)OCC

absorption maximum (in CCO): 329 nm
Structure (SMILES): Cc1cc(=O)oc2cc(-c3cn(Cc4ccccc4)nn3)ccc12

absorption maximum (in ClCCl): 642 nm
Structure (SMILES): CC(C)[Si](C#Cc1c2cc3ccccc3cc2c(C#C[Si](C)(C)C)c2cc3ccccc3cc12)(C(C)C)C(C)C

absorption maximum (in ClCCl): 542 nm
Structure (SMILES): CCCN1c2ccc(C#CC3=C4C=CC=[N+]4[B-](F)(F)n4cccc43)cc2Sc2cc(C#CC3=C4C=CC=[N+]4[B-](F)(F)n4cccc43)ccc21

absorption maximum (in C1CCOC1): 440 nm
Structure (SMILES): COc1cc2c(cc1-c1ccc(N(C)C)cc1)Cc1c3c(c4c(c1-2)-c1cc(OC)c(-c2ccc(N(C)C)cc2)cc1C4)C(=O)N(CCC(C)C)C3=O

absorption maximum (in CC#N): 302.58 nm
absorption maximum (in CCO): 300.29 nm
absorption maximum (in ClCCl): 304 nm
Structure (SMILES): CN(C)c1cc(-c2ccc(C#Cc3ccccc3)cc2)cc2ccccc12

absorption maximum (in CC#N): 555 nm
absorption maximum (in CCO): 539 nm
absorption maximum (in CN(C)C=O): 560 nm
absorption maximum (in O): 554 nm
Structure (SMILES): CCN(CC)c1ccc2c(-c3ccccc3C(=O)[O-])c3ccc(=[N+](CC)CC)cc-3oc2c1

absorption maximum (in CC#N): 548 nm
absorption maximum (in CCO): 552 nm
absorption maximum (in CN(C)C=O): 552 nm
absorption maximum (in O): 562 nm
Structure (SMILES): CCN(CC)c1ccc2c(-c3ccc(S(=O)(=O)[O-])cc3S(=O)(=O)[O-])c3ccc(=[N+](CC)CC)cc-3oc2c1

absorption maximum (in CC#N): 348 nm
absorption maximum (in CCCCCC): 342 nm
Structure (SMILES): Nc1ccc(/C=C/c2ccc3ccccc3c2)cc1

absorption maximum (in ClCCl): 337 nm
Structure (SMILES): O=C1c2ccccc2-c2nc3c(F)c(F)c(F)c(F)c3n21
